Data: patent US12156889B2, “Methods of administering mesenchymal stem cells activated by cytokines for enhancing immunosuppression” (Rutgers, The State University of New Jersey, priority 2012, dated 2024)

Columns and labels:
[1] = tested on: 355 B-cell lymphoma cell line; experiment: 355 B-cell lymphoma survival model; assay type: in vivo; conditions: 0.1 mg/mouse i.p. on day 0, 2, 4, 8, 12, 16, 20, 24, and 28
Description: FIG. 4. is a graph showing that lymphoma stromal cells (LSCs) promote lymphoma development in a NO-dependent manner. 355 B-cell lymphoma cell line (C3H-gld/gld background, 0.5×10^6 cells/mouse) was co-injected with gld/gld mice-derived lymphoma stromal cells (C3H background, P5, 0.25×10^6 cells/mouse) by tail-vein i.v. on day 0.1400 W (NOS inhibitor, 0.1 mg/mouse) was injected on day 0, 2, 4, 8, 12, 16, 20, 24, and 28 by i.p. Mice survival was recorded when mice were moribund.
To examine the effect of lymphoma stromal cells on tumor growth, 355 B-cell lymphoma cell line (C3H-gld/gld background, 0.5×10^6 cells/mouse) was co-injected with gld/gld mice-derived lymphoma stromal cells (C3H background, P5, 0.25×10^6 cells/mouse).

splenocytes = experiment: Anti-CD3-activated splenocyte proliferation in co-culture with MSCs; assay type: cell-based, mouse
Description: FIGS. 9A, 9B, 9C, 9D, 9E, 9F and 9G. […] Cloned MSCs were first treated with the indicated combinations of recombinant cytokines IFNγ, TNFα, IL-17A (2 ng/ml each) for 12 hr, then cocultured with CD4^+ T cell blasts at a 1:20 ratio (MSC:T cells), and proliferation was assessed by 3H-thymidine incorporation after an additional 12 hr. (FIG. 9B). The mRNA expression of IL-17 receptor family members in MSCs or Raw 264.7 (Macrophages) were examined by RT-PCR. NC: No RT. (FIG. 9C). Surface expression of IL-17RA was detected by immunofluoresence or flow cytometry in cloned MSCs. (FIGS. 9D and 9E). MSCs were first treated with IFNγ and TNFα with or without IL-17A (10 ng/ml), IFNγ and TNFα were supplemented at different cytokine concentrations, for 12 hr, and then cocultured with CD4^+ T cell blasts (FIG. 9D) or T cell hybridoma A1.1 cells (FIG. 9E) at a ratio of 1:20 for 12 hr. T cell proliferation was measured by 3H-Tdr incorporation. (FIG. 9F). MSCs were first treated with IFNγ and TNFα (2 ng/ml) with graded concentrations of IL-17A, for 12 hr, and then cocultured with T cell hybridoma A1.1 cells at a ratio of 1:10 for 12 hr. T cell proliferation was measured by 3H-thymidine incorporation. (FIG. 9G). MSCs were cocultured with fresh C57BL/6 splenocytes plus anti-CD3, anti-CD28, and antibodies against IL-17A, at a 1:20 or 1:40 ratio (MSCs:splenocytes), for 48 hr, and then cell proliferation was assessed by 3H-thymidine incorporation. Proliferation values represent means±SEM of three wells from a representative of three experiments.
To examine the possibility that cytokines induce the immunosuppressive capacity of MSCs, these culture conditions were reproduced by combining MSCs and fresh splenocytes at graded ratios in the presence of anti-CD3. […] The immunosuppressive capacity of MSC clones generated from different mouse strains was also examined.
To identify the mechanism through which immunosuppression by cytokine-exposed MSCs is effected, the response of anti-CD3-activated splenocytes co-cultured with MSCs (1:20, MSC:splenocytes) in a […] system was examined in various configurations.
Nitric oxide (NO) at high concentrations is known to inhibit T cell responses. It diffuses quickly from its source, but the concentration of the active form drops off within about 100 μm.
Proliferation assay—To assay T cell proliferation, 0.5 μCi of 3H-thymidine was added to each well of 96-well plates 6 hr before termination of the cultures by freezing. Plates were then thawed, cells were harvested, and incorporated 3H-Tdr was assessed with a Wallac Microbeta scintillation counter (Perkin-Elmer, Waltham, MA).

iNOS = iNOS protein and NO production in MSCs with type I IFN or FGF-2; assay type: cell-based, mouse; conditions: induced by IFN γ+TNF α or IFN γ+IL-β
Text: FIGS. 17A, 17B, 17C and 17D. Type I interferons and FGF-2 down-regulate the immunosuppressive effect of MSCs through attenuation NO production. […] (FIG. 17C) FGF-2 (FGF B) inhibited the NO production which was induced by IFN γ+TNF α or IFN γ+IL-β in MSCs, reflected by nitrate content in the culture supernatants.

Molecule	effect on stromal cell-enhanced mortality [1]	splenocyte proliferation in MSC co-culture with iNOS inhibitor (splenocytes; MSCs + splenocytes + anti-CD3)	MSC-mediated immunosuppression in MSC+splenocyte+anti-CD3 system (splenocytes)	NO production in MSCs (nitrate content in culture supernatants) (iNOS)
CC(=N)NCc1cccc(CN)c1 [1400 W]	significantly reverted the effect	same effect	–	–
FGF-2: fibroblast growth factor (protein, UniProt P15655 10-154, looked up) Fibroblast growth factor 2: PALPEDGGAAFPPGHFKDPKRLYCKNGGFFLRIHPDGRVDGVREKSDPHVKLQLQAEERGVVSIKGVCANRYLAMKEDGRLLASKCVTEECFFFERLESNNYNTYRSRKYSSWYVALKRTGQYKLGSKTGPGQKAILFLPMSAKS	–	–	significantly reduced	inhibited
